In publication PMC6214143, “Oncotoxic Properties of Serotonin Transporter Inhibitors and 5-HT1A Receptor Ligands” (International Journal of Molecular Sciences, 2018):
Where a name gives a salt, the structure may show the parent alone.

What was measured:
[1] = set-up: method as in PMID 7705455; settings: rats, s.c.; cited from earlier work
[2] = test system: PC-3 cells; experiment: MTT cell survival assay, PC-3 cells; format: cell-based, human; settings: PC-3 cells
Method: (§1) The effects of the test compounds on the survival of PC-3, SH-SY5Y, Balb/c 3T3 and HEK293 cells was measured with the aid of the 3-(4,5-dimethylthiazol-2-yl)-2,5-diphenyltetrazolium bromide (MTT) assay. The cells were cultured in 96-well plates (100 μL/well) for 72 h. The optimized initial densities were the following: for PC-3—60,000 cells/mL, SH-SY5Y and Balb/c 3T3—50,000 cells/mL.
(§2) After 20 h preincubation and evaluation of the uniformity of cell growth, the medium was aspirated, and the respective solutions of the substances were added to the culture medium. Control cells were only treated the solvent used for the compounds and medium alone.
(§3) MTT (3-(4,5-dimethylthiazol-2-yl)-2,5-diphenyltetrazolium bromide) is reduced by intracellular dehydrogenase, which is present only in live cells (mitochondria), to purple, water-insoluble formazan. After it is dissolved, formazan absorbance of the resulting solution is directly proportional to the number of living cells in culture.
(§4) After appropriate incubation, the culture medium was removed. Next, 50 μL of MTT solution (0.5 mg/mL) diluted in PBS to 0.5 mg/mL was added to each well. […] Then, the precipitated formazan was dissolved by the addition of 200 μL isopropanol. […] The plates were sealed to reduce evaporation before incubation. The test was performed in three to five independent experiments with four times the measured concentration tested. The cell survival percentage was determined as % of controls, which were cells treated with the test compound solvent at the highest concentration.

[3] = test system: SH-SY5Y cells; experiment: MTT cell survival assay, SH-SY5Y cells; format: cell-based, human; settings: SH-SY5Y cells
Method: as §1, §2, §3, §4

[4] = test system: Balb/c 3T3 cells; experiment: MTT cell survival assay, Balb/c 3T3 cells (normal reference); format: cell-based, murine; settings: Mus musculus, BALB/c3T3, 72 h
Method: as §1, §2, §3
After appropriate incubation, the culture medium was removed. Next, 50 μL of MTT solution (0.5 mg/mL) diluted in PBS to 0.5 mg/mL was added to each well. The plates were incubated for 3 h at 37 °C. Then, the precipitated formazan was dissolved by the addition of 200 μL isopropanol. After a 24-hour incubation at 4 °C in the dark, the absorbance of the dissolved formazan was measured at 570 nm (the maximum absorption of formazan) and at 690 nm (reference wavelength) using a Power Wave XS microplate spectrophotometer (Bio-Tek, Winooski, VT, USA). The plates were sealed to reduce evaporation before incubation. The test was performed in three to five independent experiments with four times the measured concentration tested. The cell survival percentage was determined as % of controls, which were cells treated with the test compound solvent at the highest concentration.

[5] = target: T1, 5-HT1A receptor (Homo sapiens, UniProt P08908); experiment: cAMP level (HTRF) in HEK293 cells that overexpress the 5-HT1AR gene; format: cell-based; settings: agonist mode, 1 µM forskolin-stimulated HEK293-5-HT1A cells
T1 construct: EGFP; expressed in transfected cells
T1 sequence (P08908 1-422): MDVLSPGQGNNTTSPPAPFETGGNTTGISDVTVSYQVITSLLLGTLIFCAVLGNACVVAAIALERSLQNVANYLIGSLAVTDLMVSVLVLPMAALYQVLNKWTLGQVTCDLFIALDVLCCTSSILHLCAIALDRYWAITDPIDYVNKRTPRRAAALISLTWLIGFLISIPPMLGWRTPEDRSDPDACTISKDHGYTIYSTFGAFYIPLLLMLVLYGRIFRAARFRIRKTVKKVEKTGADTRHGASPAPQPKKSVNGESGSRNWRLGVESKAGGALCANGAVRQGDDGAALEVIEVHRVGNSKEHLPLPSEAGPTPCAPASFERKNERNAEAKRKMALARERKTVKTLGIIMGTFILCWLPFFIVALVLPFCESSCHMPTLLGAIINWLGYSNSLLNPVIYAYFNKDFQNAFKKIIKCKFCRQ
Method: (§5) The examination of the functional activity read out as cAMP level inhibition and ERK1/2 and Akt1 phosphorylation was performed according to the instructions of the One-plate Cisbio Bioassays cAMP dynamic 2, phospho-ERK (Thr202/Tyr204) and Akt1 phospho- S473 Cellular Assay Kits respectively, using a HEK293 human fibroblast cell line that overexpresses 5-HT1A receptors. […] The cAMP levels in PC-3 cells were determined using 600,000 cells/mL. Receptor activation with the appropriate ligands was carried out for 30 min, and then the cells were lysed. The results were analyzed with GraphPad Prism v 6.0 (GraphPad Software, San Diego, CA, USA) using its in-built functions. Ligand activity was determined using a 4-parameter equation of the dose-response function. […] M.
(§6) All compounds were tested with both agonists and antagonists. To test the response of cAMP to an agonist the cells were activated with forskolin (1 µM) followed by agonist addition. […] Data are an average of minimum three independent experiments in duplicate. The control of specific activity was measured under the same conditions on cells lacking the 5-HT1A receptor. The results were expressed as % of the reference agonist activity. In the antagonist mode 100% of the reference agonist activity (EC80) corresponded to 0% antagonist activity.

[6] = target: T1, 5-HT1A receptor; experiment: ERK1/2 phosphorylation (HTRF) in HEK293 cells that overexpress the 5-HT1AR gene; format: cell-based; settings: HEK293-5-HT1A cells
Method: as §5, §6

[7] = test system: Akt pathway; experiment: pAkt level (Akt1 phospho-S473 HTRF) in HEK293 cells that overexpress the 5-HT1AR gene; format: cell-based; settings: Homo sapiens
Method: (§7) The examination of the functional activity read out as cAMP level inhibition and ERK1/2 and Akt1 phosphorylation was performed according to the instructions of the One-plate Cisbio Bioassays cAMP dynamic 2, phospho-ERK (Thr202/Tyr204) and Akt1 phospho- S473 Cellular Assay Kits respectively, using a HEK293 human fibroblast cell line that overexpresses 5-HT1A receptors. The measurements were performed in 384-well microtiter plates using 200,000, 1,875,000 or 2,000,000 cells/mL. The cAMP levels in PC-3 cells were determined using 600,000 cells/mL. Receptor activation with the appropriate ligands was carried out for 30 min, and then the cells were lysed. The results were analyzed with GraphPad Prism v 6.0 (GraphPad Software, San Diego, CA, USA) using its in-built functions. Ligand activity was determined using a 4-parameter equation of the dose-response function. The response curves were obtained by plotting the HTRF® ratio (signal ratio 665/620 nm × 10,000) relative to the log concentration of the [compound] M.

[8] = test system: PC-3 cells; experiment: cAMP level in PC-3 prostate cancer cells; format: cell-based; settings: Homo sapiens, 1 µM forskolin
Method: as §7

[9] = target: 5-HT1A receptor; settings: cited from earlier work
[10] = test system: dopamine D2 receptor; settings: cited from earlier work
[11] = WAY100635 (5 µM), spiperone (5 µM)

| EC50 [5] [nM] | EC50 ([6]; agonist mode, read-out: ERK1/2 EC50) [nM] | EC50 ([6]; elevating phosphorylated ERK1/2 levels, read-out: MAPK/ERK1/2 pathway agonist EC50) [nM] | IC50 [7] [nM] | EC50 [8] [nM] | IC50 ([8]; read-out: cAMP biochemical pathway IC50) [nM] | Structure (SMILES) | minimal effective dose (MED), reduction of immobility [1] [mg/kg] | IC50 ([2]; Homo sapiens, MTT, 72 h) [nM] | cytotoxic activity in the presence of WAY100635 and spiperone [2, 11] | IC50 ([3]; Homo sapiens, MTT, 72 h) [nM] | cytotoxic activity in the presence of WAY100635 and spiperone [3, 11] | IC50 [4] [nM] | Kd [9] [nM] | dopamine D2 receptor properties [10] |
| --- | --- | --- | --- | --- | --- | --- | --- | --- | --- | --- | --- | --- | --- | --- |
| – | – | – | – | – | – | CCCN(CCC)[C@@H]1CCc2cccc(O)c2C1 [Compound 8-OH-DPAT, (2R)-(+)-8-Hydroxy-2-(di-n-propylamino)tetralin hydrobromide] | 0.63 | – | – | – | – | – | – | – |
| 0.0254 | 0.062 | 0.093 | 15400 | 320 | 320 | COc1ccc2cccc(N3CCN(CCNC(=O)c4ccc(F)cc4)CC3)c2c1.Cl [Compound S14506, 4-Fluoro-N-[2-[4-(7-methoxy-1-naphthalenyl)-1-piperazinyl]ethyl]benzamide hydrochloride, reference compound] | – | 9980 ± 1260 | reversed | 4270 ± 410 | not against neuroblastoma SH-SY5Y cells | 20600 ± 2580 | 0.79 ± 0.2 | dopamine D2 receptor antagonist |
